Results on 1 molecule are retold here after article PMC3408453, “A Foldamer-Dendrimer Conjugate Neutralizes Synaptotoxic β-Amyloid Oligomers” (PLoS ONE, 2012).

“And” between values parts separate entries of the source, which are not always exact repeats. Identical values can stand only once.

The target of series [1] is T1, Aβ oligomers (Homo sapiens, UniProt P05067).
T1 construct: a depsipeptide derivative of Aβ(1–42) was utilized; made in house; host or cells: chemical peptide synthesis (no expression host)
Briefly: Precipitation study at 1 µM Aβ oligomer, supernatant Aβ by ELISA. As to conditions: 1 µM Aβ oligomer, 0.2, 0.5 and 1.0 equivalents of ligand, 15000× g, 3 h. How it is done: The extent of precipitation was also tested at an Aβ oligomer concentration of 1 µM. The Aβ oligomer sample was mixed with 0, 0.2, 0.5 and 1.0 equivalents of 7, centrifuged at 15000× g for 3 h and the supernatant was tested for residual Aβ concentration by using a standard ELISA (Figure 11).
Aβ concentrations determined by ELISA in supernatants obtained from samples containing 1 µM Aβ oligomer mixed with 0, 0.2, 0.5 and 1.0 equivalents of 7 and centrifuged at 15000×g (room temperature, 3 h).
1 μM solution of the Aβ oligomer sample was prepared. This solution was divided to 4×15 ml fractions and 7 was added to three samples in 1, 0.5 or 0.2 μM final concentration, respectively. All the four samples were divided into […] (2×5 ml). One fraction from each sample was centrifuged at 15000×g at RT for 3 hours in a Roth MIKRO 200 Microcentrifuge (Carl-Roth GmbH Karlsruhe, Germany) centrifuge. […]
Different amounts of Aβ (0.0001, 0.0003, 0.001, 0.003, 0.01, 0.03, 0.1, 0.3 µg pro well) were coated in the wells (6 parallels for each concentration) of a 96 well plate. […] Without using a stopping reagent, the absorbance at 370 nm was constantly monitored using a FLUOstar OPTIMA Multidetection Microplate Reader (BMG LABTECH, Offenburg, Germany). Data values were read at the saturation point of the signal curves. The supernatants were analysed according to the concentration calibration.
(An ELISA detects its analyte on a solid surface through an enzyme-linked reagent.)

The target of series [2] is T1, Aβ oligomers. Briefly: Transmission electron microscopy of Aβ oligomers with ligand. As to conditions: 72 µM Aβ oligomer + 36 µM ligand. How it is done:
The concentration-dependent increase of the particle size described above raised the question if this phenomenon was linked to an accelerated fibrillization or to any form of conformational remodeling of the Aβ oligomers. […] The shape of the aggregates was unequivocally different from that of the mature fibrils.
Figure 8 Affinity precipitation as detected by TEM. (A) TEM image of the 72 µM Aβ oligomer. (B) TEM image of the 72 µM Aβ oligomer upon addition of 36 µM 7.
Oligomer solution was placed on formvar-carbon-coated 400-mesh copper grids (Electron Microscopy Sciences, Washington, PA) and stained negatively with uranyl acetate. The aggregates were characterized by TEM on a Philips CM 10 transmission electron microscope (FEI Company, Hillsboro, Oregon, USA) operating at 100 kV. Images were taken with a Megaview II Soft Imaging System, routinely at magnifications of ×46000 and ×64000, and analyzed with an AnalySis® 3.2 software package (Soft Imaging System GmbH, Münster, Germany).

The next series addresses T2, monomeric Aβ (Homo sapiens, UniProt P05067).
T2 construct: In this work, a depsipeptide derivative of Aβ(1–42) was utilized; made in house; host or cells: chemical peptide synthesis (no expression host)
Briefly: ITC titration with monomeric Aβ sample. It counts as binding. On the technique in general: In ITC the heat of successive injections is recorded.

Series [3] addresses T1, Aβ oligomers. As to the kind of experiment: Isothermal titration calorimetry (ITC) with Aβ oligomers. As to conditions: 72 μM Aβ oligomer, 288 K. The series is classed as binding. How it is done:
Binding of 7 to the Aβ oligomers was monitored by means of isothermal titration calorimetry (ITC). […] The titrations were run at 288 K in order to improve the signal to noise ratio, and just above the precipitation limit as the ITC method is sensitive to the thermal noise caused by the stirring of large particles. […] These values strongly supported tight binding between the Aβ oligomer species and 7.
Isothermal titrations were performed with a Microcal VP-ITC microcalorimeter. The binding experiments were performed in PBS pH 7.4. The buffer solution was degassed. The concentrations of the ligands and Aβ were corrected for the material content. In individual titrations, 10 μL of ligand was injected from the computer-controlled 300-μL microsyringe at intervals of 300 s into the Aβ oligomer solution dissolved in the same buffer as the ligand. The microsyringe stirring was set to 295 rpm. All measurements were made at 288 K. The Aβ concentrations in the cell were either 72 μM or 36 μM, and the concentrations of 7 were 175 μM and 222 μM respectively. The total ligand concentration was set in the syringe so that the titration stopped when the precipitation became excessive. Control experiments were performed by injecting the ligand into a cell containing buffer with no target, and the heats of dilution were subtracted from those measured in the presence of Aβ. Titrations were also performed with buffer in the syringe and Aβ oligomer sample in the cell to check for the heat response of Aβ dilution itself. The dilution heat of the Aβ oligomer samples was constant and negligible. Since the target is inherently inhomogeneous, and an a priori model of the binding events is not available,. the experimental data were fitted to the two independent site binding model by using a nonlinear least-squares procedure, with ΔHb, ΔHb', Ka, Ka' (association constants), N and N' (number of binding sites for monomer), as adjustable parameters. The exothermic peaks appearing after the fully precipitated phase was reached, were omitted from the regression.

T1 sequence (P05067 672-713 limits assumed): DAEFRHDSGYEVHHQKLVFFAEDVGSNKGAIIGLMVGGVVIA
T2 sequence (P05067 672-713 limits assumed): as above

Turning to `N=C(N)NCCC[C@@H](CC(=O)N[C@H]1CCCC[C@@H]1C(=O)N[C@H]1CCCC[C@@H]1C(=O)N[C@@H](CC(=O)O)CC(=O)N[C@H]1CCCC[C@@H]1C(=O)NCC(=O)NCC(=O)N[C@@H](CSC1CC(=O)N(CCC(=O)NCCNC(=O)CCN(CCC(=O)NCCNC(=O)CCN2C(=O)CC(SC[C@H](NC(=O)CNC(=O)CNC(=O)[C@H]3CCCC[C@@H]3NC(=O)C[C@H](CC(=O)O)NC(=O)[C@H]3CCCC[C@@H]3NC(=O)[C@H]3CCCC[C@@H]3NC(=O)C[C@H](CCCNC(=N)N)NC(=O)[C@H]3CCCC[C@@H]3N)C(N)=O)C2=O)CCN(CCC(=O)NCCNC(=O)CCN2C(=O)CC(SC[C@H](NC(=O)CNC(=O)CNC(=O)[C@H]3CCCC[C@@H]3NC(=O)C[C@H](CC(=O)O)NC(=O)[C@H]3CCCC[C@@H]3NC(=O)[C@H]3CCCC[C@@H]3NC(=O)C[C@H](CCCNC(=N)N)NC(=O)[C@H]3CCCC[C@@H]3N)C(N)=O)C2=O)CCC(=O)NCCNC(=O)CCN2C(=O)CC(SC[C@H](NC(=O)CNC(=O)CNC(=O)[C@H]3CCCC[C@@H]3NC(=O)C[C@H](CC(=O)O)NC(=O)[C@H]3CCCC[C@@H]3NC(=O)[C@H]3CCCC[C@@H]3NC(=O)C[C@H](CCCNC(=N)N)NC(=O)[C@H]3CCCC[C@@H]3N)C(N)=O)C2=O)C1=O)C(N)=O)NC(=O)[C@H]1CCCC[C@@H]1N` (stereo partly shown) [Compound 7], at Aβ oligomers [1], the “Loss of soluble Aβ after centrifugation (supernatant ELISA)” value is “no significant loss of soluble material”. The “TEM: effect on Aβ oligomer particle morphology” value at Aβ oligomers [2] is recorded as “caused association of the spherical oligomers a few nm in size into bundles of aggregates in the μm range”. Further, the “Binding in ITC titration with monomeric Aβ sample” value on monomeric Aβ is “did not exhibit submicromolar binding”. Besides, at Aβ oligomers [3], the “N (ITC stoichiometry, number of binding sites for monomer; first or single stage)” value is 0.041±0.00089 and 0.041; the “N' (ITC stoichiometry, lower affinity interaction)” value was 0.18±0.002 and 0.18; the “ΔHb (ITC; first binding step for 7, single stage for 8)” value is 7.24 ± 0.05 kcal/mol; the “ΔHb' (ITC, lower affinity interaction)” value is 2.58 ± 0.02 kcal/mol.
